How the values were obtained:
C-RAF = C-RAF (Homo sapiens (Human), UniProt P04049); assay: Test of small molecule compounds for inhibiting the activity of C-RAF kinase (ADP-Glo)
Protocol: (§11) Test of Small Molecule Compounds for Inhibiting the Activity of C-RAF and B-RAF Kinases
The test was carried out as follows:
(§12) 1. Preparation of test compounds: according to the molecular weight of the compounds, an appropriate volume of DMSO was directly added to dissolve the test compounds. For storing the compound, the concentration of DMSO is 100%, and the final concentration of DMSO in the experimental system is 1%.
(§13) Enzyme: B-RAF: 0.1 ng/l (the final concentration in the reaction system); C-RAF: 0.1 ng/μl (the final concentration in the reaction system)
(§14) HPE: the reaction without enzyme (1% DMSO)
(§15) ZPE: the reaction with enzyme but without compound (1% DMSO)
(§16) a) 1 ul of 10-fold diluted compound or 10% DMSO was added to a 384-well assay plate,
(§17) b) 4 ul enzyme solution or assay buffer was added to the wells of the assay plate,
(§18) c) the plate was centrifuged at 1000 rpm for 1 minute to homogeneous,
(§19) d) 5 ul of ATP-substrate mixture was added to the wells of the assay plate,
(§20) e) the plate was shaked for mixing for 2 minutes,
(§21) f) the plate was incubated at 30° C. for 1 hour,
(§22) g) 10 ul of ADP-Glo reagent was added to the wells of the assay plate, and the plate was incubated for 40 minutes at 27° C.,
(§23) h) 20 ul of kinase assay solution was added to the wells of the plate, and the plate was incubated for 30 minutes at 27° C.,
(§24) i) the chemiluminescent signal was read with Envision.
(§25) The IC50 values of the positive control compound and the test compounds were calculated using the Prism software according to the variable slope of the curve.

[1] = system: MHCC97H liver cancer cell line; assay: Cell survival assay (CCK-8), MHCC97H; type: cell-based; conditions: Homo sapiens, MHCC97H cells, 72 h incubation
Protocol: (§1) Biological Example 3. Cell Survival Assay for Small Molecule Compounds
(§2) The specific procedure was carried out as follows:
(§3) 1. 600 μL of trypsin was added to a T75 cell culture flask, it was digested in a 37° C. incubator for about 1 min, then 5 mL of DMEM complete medium was added, which was blowed evenly, transferred to a 15 mL centrifuge tube, and centrifuged at 1000 rpm for 4 min;
(§4) 2. The supernatant was discarded, 5 mL of DMEM complete medium was added, which was blowed evenly, and then mixed with 10 μL of cell suspension and 10 μL of 0.4% trypan blue, and reading was recorded using a cell counter;
(§5) 3. Cells of […] different cell lines (MHCC97H, HuH7, HepG2, A549, 8505C) were seeded in 96-well plates at a cell density of 6000 cells/80 μL of complete medium/well, and cultured overnight. Only sterile water was added in the outer 36 wells of the 96-well plates, and the remaining inside 60 wells were used for cell experiments and controls;
(§6) 4. Dilution of compounds: a total of 10 concentrations of the compounds were obtained using a 3-fold dilution from the starting concentration of 10 mM.
(§7) 5. 20 μL of different compounds in different concentrations were added to each corresponding well, and the remaining wells were added with 20 μL of complete medium, the plate was shaked, and the concentration of DMSO in each well is 0.25%.
(§8) 6. After incubation for 72 h, 10 μL of CCK-8 reagent was added to each well, and cultured at 37° C. for 1-2 h; the OD value was read at 450 nm.
(§9) 7. Cell Viability (%)=[(As−Ab)/(Ac−Ab)]*100% • As: Experimental well (medium containing cells, CCK-8, compound) • Ac: Control well (medium containing cells, CCK-8) • Ab: Blank well (medium without cell and compound, CCK-8)
(§10) Table (3) lists the determination results of the activity of representative compounds of the present disclosure against various cancer cells, wherein MHCC97H, HuH7, and HepG2 are liver cancer cell lines, A549 is a lung cancer cell line, and 8505C is a thyroid cancer cell line.

[2] = system: 8505C thyroid cancer cell line; assay: Cell survival assay (CCK-8), 8505C; type: cell-based; conditions: Homo sapiens, 8505C cells, 72 h incubation
Protocol: as §1, §2, §3, §4, §5, §6, §7, §8, §9, §10

[3] = system: A549 lung cancer cell line; assay: Cell survival assay (CCK-8), A549; type: cell-based; conditions: Homo sapiens, A549 cells, 72 h incubation
Protocol: as §1, §2, §3, §4, §5, §6, §7, §8, §9, §10

B-RAF = B-RAF (Homo sapiens (Human), UniProt P15056); assay: Test of small molecule compounds for inhibiting the activity of B-RAF kinase (ADP-Glo)
Protocol: as §11
The test was carried out as follows:
as §12, §13, §14, §15, §16, §17, §18, §19, §20, §21, §22, §23, §24, §25

VEGFR-2 kinase = VEGFR-2 kinase (Homo sapiens (Human), UniProt P35968); assay: Test of small molecule compounds for inhibiting the activity of VEGFR-2 kinase; type: biochemical; conditions: class symbols A-D
In short: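 Kinase pre-incubated with diluted compounds for 30 min at room temperature, then substrate/ATP mix added and reaction run 60 min at room temperature in the dark […]. Signal read on a plate reader.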

[4] = system: HuH7 liver cancer cell line; assay: Cell survival assay (CCK-8), HuH7; type: cell-based; conditions: Homo sapiens, Huh-7, HuH7 cells, 72 h incubation
Protocol: as §1, §2, §3, §4, §5, §6, §7, §8, §9, §10

[5] = system: HepG2 liver cancer cell line; assay: Cell survival assay (CCK-8), HepG2; type: cell-based; conditions: Homo sapiens, HepG2 cells, 72 h incubation
Protocol: as §1, §2, §3, §4, §5, §6, §7, §8, §9, §10

Chain of VEGFR-2 kinase (P35968 20-1356): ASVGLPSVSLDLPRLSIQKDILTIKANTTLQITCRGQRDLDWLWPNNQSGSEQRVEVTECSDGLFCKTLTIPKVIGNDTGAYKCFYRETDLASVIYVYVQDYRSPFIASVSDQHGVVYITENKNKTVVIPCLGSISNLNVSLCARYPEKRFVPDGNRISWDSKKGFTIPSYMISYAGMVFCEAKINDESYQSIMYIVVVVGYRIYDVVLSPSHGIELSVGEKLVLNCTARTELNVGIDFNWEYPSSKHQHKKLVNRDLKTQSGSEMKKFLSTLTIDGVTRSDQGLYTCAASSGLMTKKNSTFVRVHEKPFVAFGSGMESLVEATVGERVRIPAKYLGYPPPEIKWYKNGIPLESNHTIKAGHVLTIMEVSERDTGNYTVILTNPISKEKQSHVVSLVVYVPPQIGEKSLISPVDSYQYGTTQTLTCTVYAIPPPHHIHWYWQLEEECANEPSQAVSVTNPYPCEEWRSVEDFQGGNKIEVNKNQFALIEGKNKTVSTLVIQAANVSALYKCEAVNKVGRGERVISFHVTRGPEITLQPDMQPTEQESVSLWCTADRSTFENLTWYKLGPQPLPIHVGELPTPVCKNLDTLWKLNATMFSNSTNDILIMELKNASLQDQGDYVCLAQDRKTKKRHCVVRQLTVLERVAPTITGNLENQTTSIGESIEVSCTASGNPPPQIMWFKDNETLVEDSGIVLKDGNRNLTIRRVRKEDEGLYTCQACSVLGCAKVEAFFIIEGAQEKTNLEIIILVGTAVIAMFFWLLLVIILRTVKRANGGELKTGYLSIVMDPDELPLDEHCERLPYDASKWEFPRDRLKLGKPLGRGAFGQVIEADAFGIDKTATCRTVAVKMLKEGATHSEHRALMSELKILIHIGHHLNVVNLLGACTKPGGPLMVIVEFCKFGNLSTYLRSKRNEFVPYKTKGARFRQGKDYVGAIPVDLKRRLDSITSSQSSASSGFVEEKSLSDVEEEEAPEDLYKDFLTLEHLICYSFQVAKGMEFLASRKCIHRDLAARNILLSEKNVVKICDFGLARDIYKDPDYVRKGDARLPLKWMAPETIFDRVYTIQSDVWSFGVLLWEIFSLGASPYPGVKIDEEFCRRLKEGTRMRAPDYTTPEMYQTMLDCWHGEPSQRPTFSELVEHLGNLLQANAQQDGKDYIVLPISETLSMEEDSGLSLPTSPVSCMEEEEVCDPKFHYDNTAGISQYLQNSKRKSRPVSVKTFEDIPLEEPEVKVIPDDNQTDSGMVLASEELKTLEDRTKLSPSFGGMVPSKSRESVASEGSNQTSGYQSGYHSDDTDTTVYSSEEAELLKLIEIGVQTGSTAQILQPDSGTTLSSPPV
Chain of B-RAF (P15056 whole entry): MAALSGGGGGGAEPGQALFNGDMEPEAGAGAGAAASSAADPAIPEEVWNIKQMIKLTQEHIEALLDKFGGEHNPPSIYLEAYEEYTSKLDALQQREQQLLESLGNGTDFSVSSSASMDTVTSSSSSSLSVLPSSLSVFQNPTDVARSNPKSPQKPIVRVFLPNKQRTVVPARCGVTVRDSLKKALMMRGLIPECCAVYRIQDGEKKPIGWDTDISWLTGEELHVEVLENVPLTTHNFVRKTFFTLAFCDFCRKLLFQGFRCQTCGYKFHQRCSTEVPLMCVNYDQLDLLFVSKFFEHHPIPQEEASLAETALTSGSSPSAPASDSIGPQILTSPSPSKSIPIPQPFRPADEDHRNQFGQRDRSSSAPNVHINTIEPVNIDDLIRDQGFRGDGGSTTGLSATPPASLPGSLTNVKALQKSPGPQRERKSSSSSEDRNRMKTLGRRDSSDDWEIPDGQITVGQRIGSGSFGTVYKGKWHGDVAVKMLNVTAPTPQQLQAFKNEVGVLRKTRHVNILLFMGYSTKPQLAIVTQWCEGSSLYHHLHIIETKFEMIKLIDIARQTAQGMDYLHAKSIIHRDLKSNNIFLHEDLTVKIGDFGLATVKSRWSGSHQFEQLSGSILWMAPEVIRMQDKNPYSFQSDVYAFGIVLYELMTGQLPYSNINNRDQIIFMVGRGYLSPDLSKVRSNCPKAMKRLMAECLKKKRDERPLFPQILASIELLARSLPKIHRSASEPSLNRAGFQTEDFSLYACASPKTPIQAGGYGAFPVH
Chain of C-RAF (P04049 whole entry): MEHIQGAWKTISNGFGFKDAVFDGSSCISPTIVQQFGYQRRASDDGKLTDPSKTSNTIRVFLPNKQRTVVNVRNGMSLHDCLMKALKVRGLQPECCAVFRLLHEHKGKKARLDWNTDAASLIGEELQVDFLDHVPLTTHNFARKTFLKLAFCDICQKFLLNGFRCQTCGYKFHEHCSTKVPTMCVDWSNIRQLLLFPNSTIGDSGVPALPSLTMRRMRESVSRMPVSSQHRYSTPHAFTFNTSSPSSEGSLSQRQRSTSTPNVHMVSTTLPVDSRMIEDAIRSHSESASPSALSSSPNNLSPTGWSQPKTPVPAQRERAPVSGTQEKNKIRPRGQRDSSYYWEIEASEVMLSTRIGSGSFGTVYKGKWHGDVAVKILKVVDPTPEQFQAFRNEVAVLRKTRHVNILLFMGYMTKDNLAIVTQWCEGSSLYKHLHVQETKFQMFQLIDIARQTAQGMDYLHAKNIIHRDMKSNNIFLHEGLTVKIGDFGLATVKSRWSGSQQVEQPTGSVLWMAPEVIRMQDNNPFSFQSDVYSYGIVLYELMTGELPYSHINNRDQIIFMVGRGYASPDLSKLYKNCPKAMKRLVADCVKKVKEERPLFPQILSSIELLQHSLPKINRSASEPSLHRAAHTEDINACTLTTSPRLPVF

Row | IC50 (C-RAF) [nM] | IC50 (B-RAF) [nM] | IC50 (VEGFR-2 kinase) [nM] | SMILES | IC50 [1] [nM] | IC50 [2] [nM] | IC50 [3] [nM] | IC50 [4] [nM] | IC50 [5] [nM]
1 | 200 to 500 | 200 to 500 | < 50 | COc1cc2ncnc(Oc3ccc(NC(=O)Nc4ccc(Cl)c(C(F)(F)F)c4)cc3)c2c2c1OCCO2 [Example 18, 1-(4-chloro-3-(trifluoromethyl)phenyl)-3-(4-((5-methoxy-2,3-dihydro-[1,4]dioxino[2,3-f]quinazolin-10-yl)oxy)phenyl)urea] | > 2500 | 23.2 | 1040 | 1330 | 1740
2 | […] | […] | […] | COc1cc2ncnc(Oc3ccc(NC(=O)Nc4cc(C(F)(F)F)ccc4F)cc3)c2c2c1OCCO2 [Example 20, 1-(2-fluoro-5-(trifluoromethyl)phenyl)-3-(4-((5-methoxy-2,3-dihydro-[1,4]dioxino[2,3-f]quinazolin-10-yl)oxy)phenyl)urea] | 1720 | 20.3 | 1120 | 856 | 302
3 | 500 to 1000 | 500 to 1000 | < 50 | COCCOc1cc2ncnc(Oc3ccc(NC(=O)Nc4ccc(Cl)c(C(F)(F)F)c4)cc3)c2c2c1OCCO2 [Example 46, 1-(4-chloro-3-(trifluoromethyl)phenyl)-3-(4-((5-(2-methoxyethoxy)-2,3-dihydro-[1,4]dioxino[2,3-f]quinazolin-10-yl)oxy)phenyl)urea] | > 2500 | 8.57 | 428 | 1260 | 2360
4 | […] | […] | […] | COCCOc1cc2ncnc(Oc3ccc(NC(=O)Nc4cc(C(F)(F)F)ccc4F)cc3)c2c2c1OCCO2 [Example 47, 1-(2-fluoro-5-(trifluoromethyl)phenyl)-3-(4-((5-(2-methoxyethoxy)-2,3-dihydro-[1,4]dioxino[2,3-f]quinazolin-10-yl)oxy)phenyl)urea] | 714 | 5.35 | 194 | 585 | 123
5 | 200 to 500 | < 200 | < 50 | COCCOc1cc2ncnc(Oc3ccc(NC(=O)Nc4ccc(Cl)c(C(F)(F)F)c4)c(F)c3)c2c2c1OCCO2 [Example 48, 1-(4-chloro-3-(trifluoromethyl)phenyl)-3-(2-fluoro-4-((5-(2-methoxyethoxy)-2,3-dihydro-[1,4]dioxino[2,3-f]quinazolin-10-yl)oxy)phenyl)urea] | 1230 | 21.9 | 590 | 1270 | 926
6 | 500 to 1000 | 200 to 500 | < 50 | O=C(Nc1ccc(Oc2ncnc3cc(OCCCN4CCOCC4)c4c(c23)OCCO4)c(F)c1)Nc1ccc(Cl)c(C(F)(F)F)c1 [Example 68, 1-(4-chloro-3-(trifluoromethyl)phenyl)-3-(3-fluoro-4-((5-(3-morpholinopropoxy)-2,3-dihydro-[1,4]dioxino[2,3-f]quinazolin-10-yl)oxy)phenyl)urea] | – | – | – | – | –

From patent US10980809B2, “Urea-substituted aromatic ring-linked dioxane-quinazoline and -linked dioxane-quinoline compounds, preparation method therefor and use thereof” (BEIJING SCITECH-MQ PHARMACEUTICALS LIMITED, priority 2017, dated 2021)
